Laboratory results: PubChem BioAssay (NCI)
Several values for one entry are separate records, joined by “and”; a condition that tells them apart may be missing. Identical values can stand only once.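 All cell lines were grown in 96-well plates and treated with compound for 48 hours. Abbreviation: GI50, concentration required for 50% inhibition of growth. TGI: concentration producing complete growth inhibition.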

What was measured:
Test in all cases: NCI tumour cell line growth inhibition, 48 h
[1] = system: UACC-62 melanoma
[2] = system: SK-MEL-28 melanoma
[3] = system: RPMI-8226 leukemia
[4] = system: HOP-62 NSCLC
[5] = system: SF-268 CNS
[6] = system: HL-60(TB) leukemia
[7] = system: UACC-257 melanoma
[8] = system: SK-MEL-5 melanoma
[9] = system: T-47D breast
[10] = system: NCI-H522 lung

| Structure (SMILES) | TGI [1] [µM] | TGI [2] | TGI [3] [µM] | TGI [4] [µM] | TGI [5] [µM] | TGI [6] [µM] | TGI [7] [µM] | TGI [8] | GI50 [1] | GI50 [2] | GI50 [4] | TGI [9] [µM] | TGI [10] [µM] | GI50 [3] | GI50 [6] [µM] | GI50 [10] [µM] | GI50 [7] [µM] | GI50 [8] |
| --- | --- | --- | --- | --- | --- | --- | --- | --- | --- | --- | --- | --- | --- | --- | --- | --- | --- | --- |
| CN(/N=C\c1ccnc2ccccc12)c1ccc([N+](=O)[O-])cc1 | > 100 | > 100 µM | 65.4 | > 100 | > 100 | > 100 | > 100 | > 100 µM | – | – | – | – | – | – | – | – | – | – |
| CC(C)CCCCCCCCCCCCC(=O)NCC(=O)NC1C(O)C(O)C(Nc2ncnc3nc[nH]c23)OC1C(O)CO (stereo unspecified) | – | 0.37 µM and 0.797 µM | – | – | – | – | – | – | < 0.01 nM | 0.00334 µM and 0.0102 µM | < 0.01 nM | 0.917 | – | – | – | – | – | – |
| COc1c(-c2ccccc2)nc2ccc(Oc3ccccc3)nn12 | > 100 | 99.5 µM | > 70.9 | > 100 | > 100 | > 57.3 | > 96.5 | > 63.2 µM | – | – | – | – | > 100 | – | – | – | – | – |
| O=C(Nc1ccc(Cl)c(Cl)c1)C(=O)C(C(=O)c1ccccc1-c1ccccc1)C1OC(=O)c2ccccc21 (stereo unspecified) | 41.2 | > 100 µM | 63.5 | 27.4 | 72.2 | 69.4 | > 100 | 30.3 µM | – | – | – | – | 20.6 | – | – | – | – | – |
| COC(=O)[C@@H]1Cc2c([nH]c3ccccc23)[C@H](c2ccccc2)N1 | > 100 | > 100 µM | – | – | > 100 | > 100 | > 100 | 63.4 µM | – | – | – | – | 53.1 | – | – | – | – | – |
| Nc1c(Cl)ncnc1NCCCCCCCCCCCCNc1ncnc(Cl)c1N | 13.6 | 5.22 µM | 5.74 | 6.82 | > 100 | 2.12 | 4.21 | 3.88 µM | – | – | – | – | – | – | – | – | – | – |
| COC1(OC)C2(Cl)C(Cl)=C(Cl)C1(Cl)C1C2C2CC1(C(=O)O)c1ccccc12 (stereo unspecified) | 34.8 | 38.9 µM | 54.5 | 62.8 | 55.8 | 43.1 | 47.4 | 30.5 µM | – | – | – | – | – | – | – | – | – | – |
| CC(=O)c1cc(C(=O)c2ccc3c(c2)Sc2ccccc2N3)n2ccccc12 | > 33.2 | > 33.2 µM | 20.6 | > 33.2 | > 33.2 | 0.0056 | > 33.2 | 0.818 µM and 0.742 µM | 2.93 nM and 3.32 nM | – | 3.99 nM and 3.32 nM | – | 0.00517 | 0.00585 µM and 0.00332 µM | 0.00237 | 0.00177 | 0.00332 | 0.00526 µM and 0.00332 µM |
| COC1OC2COC(C)(C)OC2C(OC(C)=O)C1NC(=O)N(CCCl)N=O (stereo unspecified) | > 100 | > 100 µM | – | > 100 | > 100 | 53.3 | > 100 | > 100 µM | – | – | – | – | 67.1 | – | – | – | – | – |
| O=C1c2ccccc2C2CCC1c1ccccc12 (stereo unspecified) | > 100 | > 100 µM | 57 | > 100 | > 100 | 38 | 76.6 | 34.1 µM | – | – | – | – | 70.6 | – | – | – | – | – |
| O=C(Nc1ccc(Cl)cc1Cl)OC(Cn1cncn1)c1ccc(Cl)cc1Cl (stereo unspecified) | 28.1 | 30.1 µM | > 100 | 34.5 | 31.9 | > 100 | 30.9 | 30.7 µM | – | – | – | – | 34.8 | – | – | – | – | – |
